Experimental data from paper PMC7046553, “Backbone Cyclization and Dimerization of LL-37-Derived Peptides Enhance Antimicrobial Activity and Proteolytic Stability” (Frontiers in Microbiology, 2020).
Converted amounts (≈) assume the structure as drawn. Where a SMILES comes first, the peptide text is derived from it. Where no end group is shown, it is not given here.

Assays:
in vitro = details: human, 25% human serum
Description: Proteolytic stability of the peptides were determined in diluted human serum (1:4 v/v, serum:PBS) at 37°C followed by LC-MS analysis. To examine the intact peptide after serum incubation, aliquots of each incubation mixture were taken at each time point for LC-MS analysis (Figure 5).
Peptide stability was assayed in diluted human serum. 25% human serum was centrifuged at 13,000 rpm for 10 min to remove lipids and the supernatant was collected and incubated at 37°C for 15 min. […] Eighty μl of 6 M urea was added and incubated at 4°C for a further 10 min. 80 μl of 20% TCA was added and incubated at 4°C for a further 10 min. The samples were centrifuged at 13000 g for 10 min and the supernatant was analyzed by LC-MS.

[1] = tested on: Staphylococcus aureus ATCC 29213; details: ATCC 29213, 5 h
Description: (§1) The three bacterial strains: Escherichia coli ATCC 25922, Pseudomonas aeruginosa ATCC 27853 Staphylococcus aureus ATCC 29213 as well as the fungal strain Candida albicans ATCC 90028 derived from clinical wound infections were obtained from the Department of Clinical Bacteriology at Lund University Hospital.
(§2) Antimicrobial activities of the peptides were evaluated using the two-step microdilution assay ([Strömstedt et al., 2017]), which is designed for testing AMPs without activity-inhibiting components. Briefly, the microbial suspension was washed twice with 10 mM Tris buffer (set to pH 7.4 at 37°C). 96-well plates (U-shaped, untreated polystyrene) were prepared with peptide 2-fold serial dilutions in Tris buffer. The culture density was quantified by OD600, diluted in Tris buffer and 50,000 cells aliquoted to each well in the 96-well plate to a final 100 μl volume. After 5 h of aerobic incubation at 37°C, 5 μl of 20% TSB medium was added to each well (resulting in 1% TSB) and the plates were re-incubated. Growth-inhibition was monitored when controls produced pellet sizes of 2 mm in diameter (close to growth saturation), which equates to 5, 8, 10, and 12 h for E. coli, S. aureus, P. aeruginosa, and C. albicans, respectively. […] The MIC-values in Table 1, are medians from triplicate experiments, while the data presented in the Figure 2 are the same values relative to that of KR-12.

[2] = tested on: Candida albicans ATCC 90028; details: for MIC C. albicans: ATCC 90028, 5 h
Description: as §1, §2

[3] = tested on: Pseudomonas aeruginosa ATCC 27853; details: ATCC 27853, 5 h
Description: as §1, §2

[4] = tested on: Escherichia coli ATCC 25922; details: ATCC 25922, 5 h
Description: as §1, §2

| Molecule | remaining at 24 h (in vitro) | MIC S. aureus [1] | MIC C. albicans [2] | MIC P. aeruginosa [3] | MIC E. coli [4] | fold lower MIC compared to KR-12, C. albicans [2] |
| --- | --- | --- | --- | --- | --- | --- |
| CC(C)C[C@@H]1NC(=O)CNC(=O)[C@H](CC(N)=O)NC(=O)[C@H](CCCNC(=N)N)NC(=O)[C@H]([C@@H](C)O)NC(=O)[C@@H]2CSSC[C@@H]3NC(=O)[C@H]([C@@H](C)O)NC(=O)CNC(=O)CNC(=O)[C@H](C(C)C)NC(=O)[C@@H]4CSSC[C@H](NC(=O)[C@H]([C@@H](C)O)NC(=O)[C@H](CSSC[C@H](NC(=O)[C@H](C(C)C)NC(=O)[C@@H]5CCCN5C1=O)C(=O)NCC(=O)N[C@@H](CCC(=O)O)C(=O)N[C@@H]([C@@H](C)O)C(=O)N4)NC(=O)CNC(=O)[C@@H]1CCCN1C(=O)[C@H]([C@@H](C)O)NC(=O)[C@H](CC(N)=O)NC3=O)C(=O)N[C@@H](CO)C(=O)N[C@@H](Cc1c[nH]c3ccccc13)C(=O)N1CCC[C@H]1C(=O)N[C@@H](C(C)C)C(=O)N2 [kalata B1, reference compound] | 80% | – | – | – | – | – |
| CC[C@H](C)[C@@H]1NC(=O)[C@H](CCCCN)NC(=O)[C@H](CC(=O)O)NC(=O)[C@H](Cc2ccccc2)NC(=O)[C@H](CC(C)C)NC(=O)[C@H](CCCNC(=N)N)NC(=O)[C@H](C)NC(=O)CNC(=O)[C@H](CCCNC(=N)N)NC(=O)[C@H](CC(C)C)NC(=O)[C@H](Cc2ccccc2)NC(=O)[C@H](CC(=O)O)NC(=O)[C@H](CCCCN)NC(=O)[C@H]([C@@H](C)CC)NC(=O)[C@H](CCCNC(=N)N)NC(=O)[C@H](CCC(N)=O)NC(=O)[C@H](C(C)C)NC(=O)[C@H]([C@@H](C)CC)NC(=O)[C@H](CCCNC(=N)N)NC(=O)[C@H](CCCCN)NC(=O)[C@H](C)NC(=O)CNC(=O)[C@H](CCCCN)NC(=O)[C@H](CCCNC(=N)N)NC(=O)[C@H]([C@@H](C)CC)NC(=O)[C@H](C(C)C)NC(=O)[C@H](CCC(N)=O)NC(=O)[C@H](CCCNC(=N)N)NC1=O [retro-cd2] (cyclo(AKRIVQRIKDFLRGARLFDKIRQVIRKG)) | – | 1.25 µM (≈ 4.21 µg/mL) | 2.5 µM (≈ 8.41 µg/mL) | 1.25 µM (≈ 4.21 µg/mL) | 0.625 µM (≈ 2.1 µg/mL) | – |
| CC[C@H](C)[C@@H]1NC(=O)[C@H](CCCCN)NC(=O)[C@H](CC(=O)O)NC(=O)[C@H](Cc2ccccc2)NC(=O)[C@H](CC(C)C)NC(=O)[C@H](CCCNC(=N)N)NC(=O)CNC(=O)[C@H](C)NC(=O)CNC(=O)[C@H](CCCNC(=N)N)NC(=O)[C@H](CC(C)C)NC(=O)[C@H](Cc2ccccc2)NC(=O)[C@H](CC(=O)O)NC(=O)[C@H](CCCCN)NC(=O)[C@H]([C@@H](C)CC)NC(=O)[C@H](CCCNC(=N)N)NC(=O)[C@H](CCC(N)=O)NC(=O)[C@H](C(C)C)NC(=O)[C@H]([C@@H](C)CC)NC(=O)[C@H](CCCNC(=N)N)NC(=O)[C@H](CCCCN)NC(=O)CNC(=O)[C@H](C)NC(=O)CNC(=O)[C@H](CCCCN)NC(=O)[C@H](CCCNC(=N)N)NC(=O)[C@H]([C@@H](C)CC)NC(=O)[C@H](C(C)C)NC(=O)[C@H](CCC(N)=O)NC(=O)[C@H](CCCNC(=N)N)NC1=O [retro-cd3] (cyclo(AGKRIVQRIKDFLRGAGRLFDKIRQVIRKG)) | – | 1.25 µM (≈ 4.35 µg/mL) | 2.5 µM (≈ 8.7 µg/mL) | 1.25 µM (≈ 4.35 µg/mL) | 1.25 µM (≈ 4.35 µg/mL) | – |
| CGGKRIVQRIKDFLRGAGGRLFDKIRQVIRKG-NH2 (C-terminus assumed) [retro-ld4*] | – | 1.25 µM | 0.625 µM | 0.625 µM | 0.625 µM | 16 fold |
